Test results: patent US6191135A, “Neurokinin antagonists” (Boehringer Ingelheim KG, priority 1994, dated 2001)

Each molecule was assayed against T1, NK1 -receptor (substance P-receptor) (Homo sapiens, UniProt P25103) (assay: NK1-receptor affinity: displacement of 125I labelled substance P on intact human lymphoblastoma cells (IM-9)). Settings: intact human lymphoblastoma cells (IM-9) expressing NK1-receptors, read-out: Ki.
T1 construct: intact human lymphoblastoma cells (IM-9) which express NK1 -receptors; endogenous in cells; host or cells: IM-9 human lymphoblastoma cells
T1 sequence (P25103 whole entry): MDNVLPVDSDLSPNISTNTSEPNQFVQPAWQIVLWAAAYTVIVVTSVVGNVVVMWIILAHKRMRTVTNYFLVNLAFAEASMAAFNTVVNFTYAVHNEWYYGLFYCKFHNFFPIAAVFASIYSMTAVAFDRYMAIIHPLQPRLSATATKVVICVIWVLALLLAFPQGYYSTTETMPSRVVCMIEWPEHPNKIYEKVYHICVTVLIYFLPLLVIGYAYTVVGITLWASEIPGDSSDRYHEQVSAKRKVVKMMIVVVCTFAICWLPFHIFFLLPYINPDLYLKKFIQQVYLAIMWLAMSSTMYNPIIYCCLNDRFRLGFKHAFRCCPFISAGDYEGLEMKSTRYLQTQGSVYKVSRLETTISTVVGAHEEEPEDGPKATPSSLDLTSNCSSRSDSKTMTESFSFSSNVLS
Assay type: binding
Description: The receptor affinity for the NK1 -receptor (substance P-receptor) was determined on intact human lymphoblastoma cells (IM-9) which express NK1 -receptors, and the displacement of ^125 I labelled substance P was measured.

Row | Structure (SMILES) | Ki [nM]
1 | COc1ccccc1C(CNCc1cc(C(F)(F)F)cc(C(F)(F)F)c1)N1CCCC(C)C1 (stereo not shown) [Example 81, 3,5-Bistrifluoromethylbenzyl-[2-(2-methoxyphenyl)-2-(3-methylpiperidine-1-yl)-ethyl]-amine] | 90
2 | O=C(NCC(c1ccccc1)N1CCN(c2ccccc2)CC1)Nc1cc(C(F)(F)F)cc(C(F)(F)F)c1 (stereo not shown) [Example 123, N-3,5-Bistrifluoromethylphenyl-N'-[2-phenyl-2-(4-phenylpiperazine-1-yl)-ethyl]-urea] | 600
3 | COc1ccccc1C(CNC(=O)Cc1ccccc1C(F)(F)F)N1CCN(C2CCCCC2)CC1 (stereo not shown) [Example 64, N-[2-(2-Methoxyphenyl)-2-(4-cyclohexylpiperazine-1-yl)-ethyl]-2-(2-trifluoromethylphenyl)-acetamide] | 273
4 | O=C(NCC(c1ccccc1)N1CCN(C2CCCCC2)CC1)Nc1ccccc1 (stereo not shown) [Example 112, N-Phenyl-N'-[2-phenyl-2-(4-cyclohexylpiperazine-1-yl)-ethyl]-urea] | 1000
5 | COc1ccccc1C(CNCc1cc(C(F)(F)F)cc(C(F)(F)F)c1)N1CCCC(c2ccccc2)C1 (single isomer, unassigned) [Example 86, 3,5-Bistrifluoromethylbenzyl-[2-(2-methoxyphenyl)-2-(3-phenylpiperidine-1-yl)-ethyl]-amine] | 368
6 | COc1ccccc1C(CNCc1cc(C(F)(F)F)cc(C(F)(F)F)c1)N1CCN(CCc2ccccc2)CC1 (stereo not shown) [Example 26, 3,5-Bistrifluoromethylbenzyl-[2-(2-methoxyphenyl)-2-(4-(2-phenylethyl)-piperazine-1-yl)-ethyl]-amine] | 7
7 | COc1ccccc1C(CNCc1cc(C(F)(F)F)cc(C(F)(F)F)c1)N1CCN(c2ccc3ccccc3n2)CC1 (stereo not shown) [Example 29, 3,5-Bistrifluoromethylbenzyl-[2-(2-methoxyphenyl)-2-(4-(2-quinolinyl)-piperazine-1-yl)-ethyl]-amine] | 119
8 | COc1ccccc1C(CN(Cc1cc(C(F)(F)F)cc(C(F)(F)F)c1)C(C)=O)N1CCN(c2ccccc2)CC1 (stereo not shown) [Example 2, N-3,5-Bistrifluoromethylbenzyl-N-[2-(2-methoxyphenyl)-2-(4-phenylpiperazine-1-yl)-ethyl]-acetamide] | 909
9 | COc1ccccc1C(CNCc1cc(C(F)(F)F)cc(C(F)(F)F)c1)N1CCN(C2CCCCC2)CC1 (stereo not shown) [Example 39, 3,5-Bistrifluoromethylbenzyl-[2-(2-methoxyphenyl)-2-(4-cyclohexylpiperazine-1-yl)-ethyl]-amine] | 16
10 | COc1ccccc1C(CNC(=O)Cc1cc(C(F)(F)F)cc(C(F)(F)F)c1)N1CCCCC1 (stereo not shown) [Example 78, N-[2-(2-Methoxyphenyl)-2-piperidin-1-yl-ethyl]-2-(3,5-bistrifluoromethylphenyl)acetamide] | 250

Results, then the molecule that gave them:

Row | Ki [nM] | Structure (SMILES)
11 | 10 | COc1ccccc1C(CNC(=O)Nc1cc(C(F)(F)F)cc(C(F)(F)F)c1)N1CCC(N2CCCCC2)CC1 (stereo not shown) [Example 177, N-3,5-Bistrifluoromethylphenyl-N'-[2-(2-methoxyphenyl)-2-(4-piperidin-1-yl)-piperidin-1-yl-ethyl]-urea]
12 | 173 | COc1ccccc1C(CNC(=O)Nc1cc(C(F)(F)F)cc(C(F)(F)F)c1)N1CC(C)CC(C)C1 (stereo not shown) [Example 172]
13 | 78 | CN1CCN(C(CNC(=O)Nc2cc(C(F)(F)F)cc(C(F)(F)F)c2)c2ccccc2)CC1 (stereo not shown) [Example 105, N-3,5-Bistrifluoromethylphenyl-N'-[2-phenyl-2-(4-methylpiperazine-1-yl)-ethyl]-urea]
14 | 520 | COc1ccccc1C(CNCc1cc(C(F)(F)F)cc(C(F)(F)F)c1)N1CCN(c2cccc(C)c2C)CC1 (stereo not shown) [Example 20, 3,5-Bistrifluoromethylbenzyl-[2-(2-methoxyphenyl)-2-(4-(2,3-dimethylphenyl)-piperazine-1-yl)-ethyl]-amine]
15 | 34 | CCCN1CCN(C(CNC(=O)Nc2cc(C(F)(F)F)cc(C(F)(F)F)c2)c2ccccc2OC)CC1 (stereo not shown) [Example 108, N-3,5-Bistrifluoromethylphenyl-N'-[2-(2-methoxyphenyl)-2-(4-(1-propyl)piperazine-1-yl)-ethyl]-urea]
16 | 650 | COc1ccccc1C(CNC(=O)Nc1cc(C(F)(F)F)cc(C(F)(F)F)c1)N1CCN(c2ccccc2)CC1 (stereo not shown) [Example 142]
17 | 905 | COc1ccccc1C(CNC(=O)Nc1cc(C(F)(F)F)cc(C(F)(F)F)c1)N1CCN(c2ccc3ccccc3n2)CC1 (stereo not shown) [Example 158, N-3,5-Bistrifluoromethylphenyl-N'-[2-(2-methoxyphenyl)-2-(4-(2-quinolinyl)piperazine-1-yl)-ethyl]-urea]
18 | 190 | COc1ccccc1C(CNC(=O)Nc1cc(C(F)(F)F)cc(C(F)(F)F)c1)N1CCN(Cc2ccccc2)CC1 (stereo not shown) [Example 147]
19 | 286 | COc1ccccc1C(CNC(=O)Nc1cc(C(F)(F)F)cc(C(F)(F)F)c1)N1CCN(Cc2ccc3c(c2)OCO3)CC1 (stereo not shown) [Example 148, N-3,5-Bistrifluoromethylphenyl-N'-[2-(2-methoxyphenyl)-2-(3,4-methylenedioxybenzyl-piperazine-1-yl)-ethyl]-urea]
